Assays:
[1] = tracer doses of tritiated 4-hydroxytamoxifen applied in alcoholic solution 24 hours before excision of cancerous breasts; format: in vivo; settings: human, breast tissue, topical or ocular, read-out: portion of the radioactivity metabolized to unidentified products
[2] = tested on: protein structures corresponding to hormonal receptors; assay: as above; format: in vivo
[3] = radioactive 4-hydroxytamoxifen applied on the skin of a healthy subject, urinary radioactivity in 15 days and circulating blood; format: in vivo
From the text: A small portion of the radioactivity is metabolized to unidentified products (3%). In parallel, this same product in radioactive form was applied on the skin of a healthy subject, and a calculation was made of the radioactivity appearing in the urine in 15 days following administration of the product. […] It is only as a secondary effect that it reaches the liver, where it is inactivated.

[4] = tamoxifen per os; 4-hydroxytamoxifen orally or parenterally, other than percutaneously; cited from earlier work
solubility in alcohol = format: physicochemical
From the text: (§1) The daily doses of product to be administered are easy to calculate in terms of the absorption coefficients of the drugs and the doses which it is desired to obtain for 4-hydroxytamoxifen and progesterone at the level of their receptor molecules.

[5] = passage through the liver; cited from earlier work
cutaneous absorption = format: in vivo; settings: skin, topical or ocular; percutaneous; read-out: coefficient of cutaneous absorption
From the text: as §1

[6] = tested on: receptor molecules in cancerous mammary tumors; assay: percutaneous application on the skin overlying cancerous mammary tumors; format: in vivo
progesterone receptor = settings: common knowledge; cited from earlier work
[7] = cited from earlier work; for hepatic by-pass after percutaneous administration: alcoholic solution
progesterone receptors = assay: tracer doses of tritiated progesterone administered percutaneously under the same conditions; format: in vivo
Protocol: In another experiment, tracer doses of tritiated progesterone were administered under the same conditions as 4-hydroxytamoxifen.

CC/C(=C(\c1ccc(O)cc1)c1ccc(OCCN(C)C)cc1)c1ccccc1 [4-hydroxytamoxifen, 1-[4-(2-N-dimethylaminoethoxy)phenyl]-1-(4-hydroxyphenyl)-2-phenylbut-1-(Z)-ene]
metabolised at 24 h [1]: 3% | form found at the hormonal receptors [2]: appeared in its original form at the level of the protein structures corresponding to hormonal receptors | product in circulating blood ([3]; circulating blood): only traces of the product are detectable | destruction of the product from urinary elimination ([3]; healthy subject, urine, 15 days): weak and gradual destruction of the product | harmful side effects: stimulation of the ovaries [4]: detrimental paradoxical stimulation of the ovaries | solubility in alcohol (solubility in alcohol): soluble in alcohol | metabolism/degradation after oral administration [5]: more rapidly degraded than tamoxifen | Fa (cutaneous absorption): ~1% | passage through the cutaneous barrier and uptake on receptor molecules in tumors ([6]; 60% strength alcoholic solution): capable of passing through the cutaneous barrier and being taken up on the receptor molecules in these tumors

CC(=O)[C@H]1CC[C@H]2[C@@H]3CCC4=CC(=O)CC[C@]4(C)[C@H]3CC[C@]12C [progesterone]
action on the progesterone receptor (progesterone receptor): binds to is own receptor, which it activates | topical retention ([7]; alcoholic solution or 60% strength aqueous alcoholic gel): 48 h | hepatic by-pass after percutaneous administration [7]: hepatic by-passes thus produced were demonstrated | solubility in alcohol (solubility in alcohol): soluble in alcohol | radioactivity in the blood (progesterone receptors; blood): No radioactivity circulates in the blood | uptake by specific receptors and inactivation (progesterone receptors; conclusion): taken up by specific receptors and that it is inactivated for the most part in situ | form found, binding to the progesterone receptors and metabolism (progesterone receptors; tritiated, percutaneous, excised cancerous breast): appeared in its original form, partly bound to the progesterone receptors and partly metabolized | metabolites in the urine (progesterone receptors; urine): various metabolites of progesterone appeared in the 56 hours following the experiment | metabolism/degradation after oral administration [5]: completely destroyed during its passage through the liver | Fa (cutaneous absorption): 10%

CC/C(=C(\c1ccccc1)c1ccc(OCCN(C)C)cc1)c1ccccc1 [tamoxifen, 1-[4-(2-N-dimethylaminoethoxy)phenyl]-1,2diphenylbut-1-(Z)-ene]
harmful side effects: stimulation of the ovaries [4]: a paradoxical stimulation of the ovaries | metabolism/degradation after oral administration [5]: converted during its passage through the liver to numerous metabolites | activation to the 4-hydroxy derivative by the percutaneous route ([6]; percutaneous, breast): cannot be activated to its 4-hydroxy derivative by the percutaneous route

C[C@]12CC[C@H]3[C@@H](CCC4=CC(=O)CC[C@@]43C)[C@@H]1CC[C@@H]2O [testosterone]
hepatic by-pass after percutaneous administration [7]: hepatic by-passes thus produced were demonstrated

From patent US4919937A, “Percutaneous administration of tamoxifen” (priority 1984, dated 1990)
